Reference: patent publication US9637483B2, “Heterocyclic compound” (TAKEDA PHARMACEUTICAL COMPANY LIMITED, priority 2013, dated 2017)

Assays:
Assay type in all cases: biochemical
JAK3 = target: T1, JAK3 (Homo sapiens, UniProt P52333); test: JAK3 enzyme inhibition test (LANCE method); details: 1 μM test compound; for inhibition at 1 µM: read-out: JAK3 enzyme inhibitory activity (%, 1 μM)
T1 construct: purchased Invitrogen
T1 sequence (P52333 1-1124): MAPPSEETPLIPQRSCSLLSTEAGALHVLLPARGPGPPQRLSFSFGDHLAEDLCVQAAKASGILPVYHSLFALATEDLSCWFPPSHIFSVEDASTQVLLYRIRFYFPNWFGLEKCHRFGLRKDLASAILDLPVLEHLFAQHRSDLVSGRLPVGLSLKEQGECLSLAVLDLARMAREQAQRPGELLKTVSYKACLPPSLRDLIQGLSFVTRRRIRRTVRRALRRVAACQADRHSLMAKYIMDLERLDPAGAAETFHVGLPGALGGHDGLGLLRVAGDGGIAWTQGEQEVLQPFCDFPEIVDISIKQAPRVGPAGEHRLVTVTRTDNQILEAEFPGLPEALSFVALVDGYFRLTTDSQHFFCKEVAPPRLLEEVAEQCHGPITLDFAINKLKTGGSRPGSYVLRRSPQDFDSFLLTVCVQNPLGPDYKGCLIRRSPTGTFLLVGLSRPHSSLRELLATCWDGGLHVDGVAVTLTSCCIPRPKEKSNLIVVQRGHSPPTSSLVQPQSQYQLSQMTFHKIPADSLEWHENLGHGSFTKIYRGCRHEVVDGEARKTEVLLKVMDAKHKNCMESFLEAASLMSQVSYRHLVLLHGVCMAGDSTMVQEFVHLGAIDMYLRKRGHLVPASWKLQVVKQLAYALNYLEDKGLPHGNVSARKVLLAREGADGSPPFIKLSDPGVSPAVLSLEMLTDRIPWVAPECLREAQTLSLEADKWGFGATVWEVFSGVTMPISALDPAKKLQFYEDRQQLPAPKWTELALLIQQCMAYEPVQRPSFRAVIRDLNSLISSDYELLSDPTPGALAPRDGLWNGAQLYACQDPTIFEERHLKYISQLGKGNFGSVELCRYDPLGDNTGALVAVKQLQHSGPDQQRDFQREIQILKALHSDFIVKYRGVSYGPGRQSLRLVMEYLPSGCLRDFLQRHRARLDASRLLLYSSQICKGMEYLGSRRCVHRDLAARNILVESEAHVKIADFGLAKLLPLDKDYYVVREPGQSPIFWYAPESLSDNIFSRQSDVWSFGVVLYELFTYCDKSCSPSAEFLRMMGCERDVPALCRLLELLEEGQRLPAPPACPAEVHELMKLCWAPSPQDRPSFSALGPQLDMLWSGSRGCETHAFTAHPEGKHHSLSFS
Outline: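 Recombinant JAK3 (12 ng/mL solution) with ULight-JAK1 peptide (300 nM solution) and ATP (15 μM solution) in HEPES pH 7.5 buffer, 1 h at room temperature. EDTA stop with Eu-anti-phosphotyrosine antibody; TR-FRET at 665 nm. Inhibition relative to enzyme-free wells as 100%.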

TYK2 = target: T2, TYK2 (Homo sapiens, UniProt P29597); test: TYK2 enzyme inhibition test (LANCE method); details: 1 μM test compound; for inhibition at 1 µM: read-out: TYK2 enzyme inhibitory activity (%, 1 μM)
T2 construct: purchased Invitrogen
T2 sequence (P29597 whole entry): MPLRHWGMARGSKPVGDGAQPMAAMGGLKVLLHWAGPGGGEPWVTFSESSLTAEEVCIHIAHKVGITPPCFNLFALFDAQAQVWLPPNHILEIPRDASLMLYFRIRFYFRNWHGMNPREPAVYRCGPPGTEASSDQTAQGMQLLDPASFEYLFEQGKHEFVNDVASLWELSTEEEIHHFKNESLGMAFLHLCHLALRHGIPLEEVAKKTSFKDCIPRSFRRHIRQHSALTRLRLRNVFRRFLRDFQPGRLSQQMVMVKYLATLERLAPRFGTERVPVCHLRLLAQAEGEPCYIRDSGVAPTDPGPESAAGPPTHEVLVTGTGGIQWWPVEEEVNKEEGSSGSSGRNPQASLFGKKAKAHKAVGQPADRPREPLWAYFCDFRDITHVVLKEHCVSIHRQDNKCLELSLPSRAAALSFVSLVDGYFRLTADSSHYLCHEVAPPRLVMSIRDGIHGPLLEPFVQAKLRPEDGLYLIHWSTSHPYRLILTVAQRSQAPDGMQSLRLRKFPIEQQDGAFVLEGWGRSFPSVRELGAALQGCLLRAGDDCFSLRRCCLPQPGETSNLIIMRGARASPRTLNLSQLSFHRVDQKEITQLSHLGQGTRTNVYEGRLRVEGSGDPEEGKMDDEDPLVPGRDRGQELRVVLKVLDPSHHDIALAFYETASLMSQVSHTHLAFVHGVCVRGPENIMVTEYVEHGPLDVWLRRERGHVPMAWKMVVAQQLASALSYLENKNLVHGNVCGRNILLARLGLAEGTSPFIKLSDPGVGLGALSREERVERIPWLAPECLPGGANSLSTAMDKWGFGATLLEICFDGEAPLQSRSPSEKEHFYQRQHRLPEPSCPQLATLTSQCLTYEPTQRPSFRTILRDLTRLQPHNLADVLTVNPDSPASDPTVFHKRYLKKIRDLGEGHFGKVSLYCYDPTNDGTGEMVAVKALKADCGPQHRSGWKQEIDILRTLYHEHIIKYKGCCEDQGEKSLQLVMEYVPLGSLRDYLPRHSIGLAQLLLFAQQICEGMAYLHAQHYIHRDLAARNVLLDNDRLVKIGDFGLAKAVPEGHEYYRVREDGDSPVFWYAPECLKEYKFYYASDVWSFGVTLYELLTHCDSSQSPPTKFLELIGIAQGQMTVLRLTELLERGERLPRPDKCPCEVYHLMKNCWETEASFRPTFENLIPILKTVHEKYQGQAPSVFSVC
Outline: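 Recombinant TYK2 (375 ng/mL working solution) with ULight-JAK1 peptide (300 nM working solution) and ATP (30 μM working solution) in HEPES pH 7.5 buffer with MgCl2, EGTA, DTT, Tween20, BSA, reacted 1 h at RT. EDTA-stopped, Eu-anti-phosphotyrosine TR-FRET read at 665 nm; inhibition relative to enzyme-free wells as 100%.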

JAK1 = target: T3, JAK1 (Homo sapiens, UniProt P23458); test: JAK1 enzyme inhibition test (LANCE method); details: 1 μM test compound; for inhibition at 1 µM: read-out: JAK1 enzyme inhibitory activity (%, 1 μM)
T3 construct: purchased Invitrogen
T3 sequence (P23458 whole entry): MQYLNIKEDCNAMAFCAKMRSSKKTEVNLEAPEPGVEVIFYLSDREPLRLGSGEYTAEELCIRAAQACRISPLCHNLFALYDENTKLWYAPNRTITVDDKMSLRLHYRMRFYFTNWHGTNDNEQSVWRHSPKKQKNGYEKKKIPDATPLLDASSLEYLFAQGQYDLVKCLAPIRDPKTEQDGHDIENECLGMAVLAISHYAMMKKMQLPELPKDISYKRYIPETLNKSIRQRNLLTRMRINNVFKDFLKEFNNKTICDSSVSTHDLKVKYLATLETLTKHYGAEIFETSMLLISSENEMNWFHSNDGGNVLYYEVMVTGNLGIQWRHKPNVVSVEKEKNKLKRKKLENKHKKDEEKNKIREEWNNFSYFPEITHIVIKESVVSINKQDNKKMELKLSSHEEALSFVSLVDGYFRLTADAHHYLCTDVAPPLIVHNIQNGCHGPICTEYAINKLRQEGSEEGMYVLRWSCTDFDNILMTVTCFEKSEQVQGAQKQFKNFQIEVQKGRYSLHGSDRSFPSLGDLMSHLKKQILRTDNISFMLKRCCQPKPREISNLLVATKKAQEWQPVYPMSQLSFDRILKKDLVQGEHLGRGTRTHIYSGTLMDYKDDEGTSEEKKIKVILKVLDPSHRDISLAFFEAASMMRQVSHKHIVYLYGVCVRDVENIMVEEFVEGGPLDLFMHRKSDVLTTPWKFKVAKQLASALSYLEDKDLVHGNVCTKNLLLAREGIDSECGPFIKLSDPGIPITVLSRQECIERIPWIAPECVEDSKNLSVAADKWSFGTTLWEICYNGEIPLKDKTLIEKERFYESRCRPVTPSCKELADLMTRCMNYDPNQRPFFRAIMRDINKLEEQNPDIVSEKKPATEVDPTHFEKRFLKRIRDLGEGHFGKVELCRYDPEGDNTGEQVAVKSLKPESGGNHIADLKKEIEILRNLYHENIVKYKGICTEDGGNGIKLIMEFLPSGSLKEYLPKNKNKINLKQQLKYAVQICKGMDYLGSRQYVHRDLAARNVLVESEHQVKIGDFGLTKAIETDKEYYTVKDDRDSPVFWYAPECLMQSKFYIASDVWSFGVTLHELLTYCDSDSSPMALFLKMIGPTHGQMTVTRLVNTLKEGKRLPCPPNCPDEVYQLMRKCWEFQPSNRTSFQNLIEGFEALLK
Outline: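 TR-FRET (LANCE) with ULight-JAK1 peptide (300 nM working solution) and ATP (150 μM working solution) in HEPES pH 7.5, MgCl2, EGTA, DTT buffer; 1 h at room temperature. EDTA stop plus Eu-anti-phosphotyrosine antibody, 665 nm read after 1 h. Inhibition relative to enzyme-free wells as 100%.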

JAK2 = target: T4, JAK2 (Homo sapiens, UniProt O60674); test: JAK2 enzyme inhibition test (LANCE method); details: 1 μM test compound; for inhibition at 1 µM: read-out: JAK2 enzyme inhibitory activity (%, 1 μM)
T4 construct: purchased Invitrogen
T4 sequence (O60674 whole entry): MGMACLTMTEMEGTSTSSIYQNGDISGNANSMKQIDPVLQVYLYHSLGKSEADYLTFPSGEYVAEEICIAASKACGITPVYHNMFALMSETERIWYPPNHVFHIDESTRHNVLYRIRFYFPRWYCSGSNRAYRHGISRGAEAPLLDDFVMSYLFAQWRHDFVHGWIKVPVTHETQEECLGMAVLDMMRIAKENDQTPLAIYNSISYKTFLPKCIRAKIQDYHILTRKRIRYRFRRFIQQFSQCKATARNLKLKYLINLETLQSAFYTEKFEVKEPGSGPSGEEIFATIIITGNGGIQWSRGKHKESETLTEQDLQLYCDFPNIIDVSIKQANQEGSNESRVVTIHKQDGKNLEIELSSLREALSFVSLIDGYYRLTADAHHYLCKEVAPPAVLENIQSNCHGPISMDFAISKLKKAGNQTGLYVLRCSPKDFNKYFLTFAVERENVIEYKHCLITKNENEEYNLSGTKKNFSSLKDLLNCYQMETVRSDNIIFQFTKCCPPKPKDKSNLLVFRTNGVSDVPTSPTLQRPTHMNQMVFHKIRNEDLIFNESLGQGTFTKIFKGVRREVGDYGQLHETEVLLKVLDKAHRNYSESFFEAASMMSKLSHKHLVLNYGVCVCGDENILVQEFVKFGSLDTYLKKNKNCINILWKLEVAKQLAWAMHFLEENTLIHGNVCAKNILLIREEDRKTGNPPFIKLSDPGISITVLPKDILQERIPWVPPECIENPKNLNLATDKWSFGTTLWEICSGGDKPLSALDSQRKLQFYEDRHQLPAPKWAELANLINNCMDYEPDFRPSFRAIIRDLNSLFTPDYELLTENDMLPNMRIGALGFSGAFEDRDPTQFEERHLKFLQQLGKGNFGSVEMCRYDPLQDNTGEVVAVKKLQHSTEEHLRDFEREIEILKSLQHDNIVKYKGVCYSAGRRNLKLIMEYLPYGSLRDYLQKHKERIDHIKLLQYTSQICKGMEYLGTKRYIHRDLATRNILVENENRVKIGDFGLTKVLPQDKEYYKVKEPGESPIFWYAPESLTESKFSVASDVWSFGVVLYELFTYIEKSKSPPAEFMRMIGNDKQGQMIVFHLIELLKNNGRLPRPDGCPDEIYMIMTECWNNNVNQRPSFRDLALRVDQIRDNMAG
Outline: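 Recombinant JAK2 (6 ng/mL solution) phosphorylated ULight-JAK1 peptide (300 nM solution) with ATP (45 μM solution) in pH 7.5 HEPES/MgCl2/DTT buffer for 1 hr at room temperature. After EDTA stop and europium anti-phosphotyrosine antibody for 1 hr, TR-FRET read at 665 nm; inhibition relative to enzyme-free wells as 100%.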

Structure (SMILES): CC(C)[C@H](C)n1cc(-c2cc(N3CCC(F)(F)C3)n(C)n2)c2[nH]nc(N)c2c1=O [Example 106, 3-amino-7-(5-(3,3-difluoropyrrolidin-1-yl)-1-methyl-1H-pyrazol-3-yl)-5-((2S)-3-methylbutan-2-yl)-1,5-dihydro-4H-pyrazolo[4,3-c]pyridin-4-one]
- inhibition at 1 µM (JAK3): 99%
- inhibition at 1 µM (TYK2): 100%
- inhibition at 1 µM (JAK1): 97%
- inhibition at 1 µM (JAK2): 99%

Structure (SMILES): CC(C)[C@H](C)n1cc(-c2cc(N3CCN(S(=O)(=O)C4CC4)CC3)n(C)n2)c2[nH]nc(N)c2c1=O [Example 107, 3-amino-7-(5-(4-(cyclopropylsulfonyl)piperazin-1-yl)-1-methyl-1H-pyrazol-3-yl)-5-((2S)-3-methylbutan-2-yl)-1,5-dihydro-4H-pyrazolo[4,3-c]pyridin-4-one]
- inhibition at 1 µM (JAK3): 99%
- inhibition at 1 µM (TYK2): 100%
- inhibition at 1 µM (JAK1): 97%
- inhibition at 1 µM (JAK2): 98%

Structure (SMILES): CC(C)[C@H](C)n1cc(-c2cc(N3CCN(S(C)(=O)=O)CC3)n(C)n2)c2[nH]nc(N)c2c1=O [Example 108, 3-amino-5-((2S)-3-methylbutan-2-yl)-7-(1-methyl-5-(4-(methylsulfonyl)piperazin-1-yl)-1H-pyrazol-3-yl)-1,5-dihydro-4H-pyrazolo[4,3-c]pyridin-4-one]
- inhibition at 1 µM (JAK3): 99%
- inhibition at 1 µM (TYK2): 100%
- inhibition at 1 µM (JAK1): 98%
- inhibition at 1 µM (JAK2): 98%

Structure (SMILES): COC(C)(C)c1cc(-c2cn([C@@H](C)C(C)C)c(=O)c3c(N)n[nH]c23)nn1C [Example 109, 3-amino-7-(5-(2-methoxypropan-2-yl)-1-methyl-1H-pyrazol-3-yl)-5-((2S)-3-methylbutan-2-yl)-1,5-dihydro-4H-pyrazolo[4,3-c]pyridin-4-one]
- inhibition at 1 µM (JAK3): 99%
- inhibition at 1 µM (TYK2): 99%
- inhibition at 1 µM (JAK1): 98%
- inhibition at 1 µM (JAK2): 99%

Structure (SMILES): COC1(c2cc(-c3cn([C@@H](C)C(C)C)c(=O)c4c(N)n[nH]c34)nn2C)CCS(=O)(=O)CC1 [Example 110, 3-amino-7-(5-(4-methoxy-1,1-dioxidotetrahydro-2H-thiopyran-4-yl)-1-methyl-1H-pyrazol-3-yl)-5-((2S)-3-methylbutan-2-yl)-1,5-dihydro-4H-pyrazolo[4,3-c]pyridin-4-one]
- inhibition at 1 µM (JAK3): 99%
- inhibition at 1 µM (TYK2): 100%
- inhibition at 1 µM (JAK1): 89%
- inhibition at 1 µM (JAK2): 99%

Structure (SMILES): COC1(c2cc(-c3cn([C@@H](C)C(C)C)c(=O)c4c(N)n[nH]c34)nn2C)CN(C(=O)C(C)C)C1 [Example 111, 3-amino-7-(5-(1-isobutyryl-3-methoxyazetidin-3-yl)-1-methyl-1H-pyrazol-3-yl)-5-((2S)-3-methylbutan-2-yl)-1,5-dihydro-4H-pyrazolo[4,3-c]pyridin-4-one]
- inhibition at 1 µM (JAK3): 98%
- inhibition at 1 µM (TYK2): 100%
- inhibition at 1 µM (JAK1): 83%
- inhibition at 1 µM (JAK2): 97%

Structure (SMILES): CC(C)C(C#N)n1cc(-c2cc(N3CCOCC3)n(C)n2)c2[nH]nc(N)c2c1=O (stereo not drawn) [Example 113, 2-(3-amino-7-(1-methyl-5-(morpholin-4-yl)-1H-pyrazol-3-yl)-4-oxo-1,4-dihydro-5H-pyrazolo[4,3-c]pyridin-5-yl)-3-methylbutanenitrile]
- inhibition at 1 µM (JAK3): 99%
- inhibition at 1 µM (TYK2): 99%
- JAK1 enzyme inhibitory activity (%, 1 μM) (JAK1): 97%
- JAK2 enzyme inhibitory activity (%, 1 μM) (JAK2): 98%

Structure (SMILES): CC(C)C(C#N)n1cc(-c2cc(N3CCOCC3)n(C)n2)c2[nH]nc(N)c2c1=O (stereo not drawn) [Example 114, 2-(3-amino-7-(1-methyl-5-(morpholin-4-yl)-1H-pyrazol-3-yl)-4-oxo-1,4-dihydro-5H-pyrazolo[4,3-c]pyridin-5-yl)-3-methylbutanenitrile]
- JAK3 enzyme inhibitory activity (%, 1 μM) (JAK3): 84%
- TYK2 enzyme inhibitory activity (%, 1 μM) (TYK2): 95%
- JAK1 enzyme inhibitory activity (%, 1 μM) (JAK1): 68%
- JAK2 enzyme inhibitory activity (%, 1 μM) (JAK2): 74%

Structure (SMILES): CC(C)C(C1CC1)n1cc(-c2cc(N3CCOCC3)n(C)n2)c2[nH]nc(N)c2c1=O (stereo not drawn) [Example 115, 3-amino-5-(1-cyclopropyl-2-methylpropyl)-7-(1-methyl-5-(morpholin-4-yl)-1H-pyrazol-3-yl)-1,5-dihydro-4H-pyrazolo[4,3-c]pyridin-4-one]
- inhibition at 1 µM (JAK3): 99%
- inhibition at 1 µM (TYK2): 100%
- inhibition at 1 µM (JAK1): 93%
- inhibition at 1 µM (JAK2): 91%

Structure (SMILES): CC1CCCCC1n1cc(-c2cc(C(C)(C)O)n(C)n2)c2[nH]nc(N)c2c1=O (stereo not drawn) [Example 117, 3-amino-7-(5-(2-hydroxypropan-2-yl)-1-methyl-1H-pyrazol-3-yl)-5-(2-methylcyclohexyl)-1,5-dihydro-4H-pyrazolo[4,3-c]pyridin-4-one]
- inhibition at 1 µM (JAK3): 97%
- inhibition at 1 µM (TYK2): 99%
- inhibition at 1 µM (JAK1): 85%
- inhibition at 1 µM (JAK2): 85%

Structure (SMILES): CC1CCCCC1n1cc(-c2cc(C(C)(C)O)n(C)n2)c2[nH]nc(N)c2c1=O (stereo not drawn) [Example 118, 3-amino-7-(5-(2-hydroxypropan-2-yl)-1-methyl-1H-pyrazol-3-yl)-5-(2-methylcyclohexyl)-1,5-dihydro-4H-pyrazolo[4,3-c]pyridin-4-one]
- JAK3 enzyme inhibitory activity (%, 1 μM) (JAK3): 99%
- TYK2 enzyme inhibitory activity (%, 1 μM) (TYK2): 100%
- JAK1 enzyme inhibitory activity (%, 1 μM) (JAK1): 98%
- JAK2 enzyme inhibitory activity (%, 1 μM) (JAK2): 97%

Structure (SMILES): CC1CCCCC1n1cc(-c2cc(C(C)(C)O)n(C)n2)c2[nH]nc(N)c2c1=O (stereo not drawn) [Example 119, 3-amino-7-(5-(2-hydroxypropan-2-yl)-1-methyl-1H-pyrazol-3-yl)-5-(2-methylcyclohexyl)-1,5-dihydro-4H-pyrazolo[4,3-c]pyridin-4-one]
- JAK3 enzyme inhibitory activity (%, 1 μM) (JAK3): 100%
- TYK2 enzyme inhibitory activity (%, 1 μM) (TYK2): 100%
- JAK1 enzyme inhibitory activity (%, 1 μM) (JAK1): 99%
- JAK2 enzyme inhibitory activity (%, 1 μM) (JAK2): 98%

Structure (SMILES): CC1CCCCC1n1cc(-c2cc(C(C)(C)O)n(C)n2)c2[nH]nc(N)c2c1=O (stereo not drawn) [Example 120, 3-amino-7-(5-(2-hydroxypropan-2-yl)-1-methyl-1H-pyrazol-3-yl)-5-(2-methylcyclohexyl)-1,5-dihydro-4H-pyrazolo[4,3-c]pyridin-4-one]
- JAK3 enzyme inhibitory activity (%, 1 μM) (JAK3): 100%
- TYK2 enzyme inhibitory activity (%, 1 μM) (TYK2): 101%
- JAK1 enzyme inhibitory activity (%, 1 μM) (JAK1): 100%
- JAK2 enzyme inhibitory activity (%, 1 μM) (JAK2): 100%

Structure (SMILES): COC(C)(C)c1cc(-c2cn(-c3c(F)cccc3C#N)c(=O)c3c(N)n[nH]c23)nn1C [Example 121, 2-(3-amino-7-(5-(2-methoxypropan-2-yl)-1-methyl-1H-pyrazol-3-yl)-4-oxo-1,4-dihydro-5H-pyrazolo[4,3-c]pyridin-5-yl)-3-fluorobenzonitrile]
- inhibition at 1 µM (JAK3): 97%
- inhibition at 1 µM (TYK2): 100%
- inhibition at 1 µM (JAK1): 98%
- inhibition at 1 µM (JAK2): 98%

Structure (SMILES): CC(C)N(C)c1cc(-c2cn(-c3c(F)cccc3C#N)c(=O)c3c(N)n[nH]c23)nn1C [Example 122, 2-(3-amino-7-(5-(isopropyl(methyl)amino)-1-methyl-1H-pyrazol-3-yl)-4-oxo-1,4-dihydro-5H-pyrazolo[4,3-c]pyridin-5-yl)-3-fluorobenzonitrile]
- inhibition at 1 µM (JAK3): 97%
- inhibition at 1 µM (TYK2): 101%
- inhibition at 1 µM (JAK1): 97%
- inhibition at 1 µM (JAK2): 93%
